Experimental data reported in publication PMC12797250, “Structure–activity relationships can be directly extracted from high-throughput crystallographic evaluation of fragment elaborations in crude reaction mixtures” (Chemical Science, 2025).

How the values were obtained:
[1] = target: T1, PHIP(2) (Homo sapiens, UniProt Q8WWQ0); assay: grating-coupled interferometry (waveRAPID), immobilised PHIP([…]); format: binding
T1 construct: second bromodomain

[2] = target: T1, PHIP(2); assay: X-ray crystallography, crystal soak; format: binding; details: acetylated lysine site; soak 8 mM, 24 h, 4 °C, 20% ethylene glycol, pH about 5.6; flipped and translated pose

Kd [1] [µM] | SMILES | X-ray crystallography, crystal soak [2]
18 | CNC(=O)N1CCN(C(=O)c2ccc(COc3ccccc3)o2)CC1 [LAT33] | 
 | CC1=Nc2ccc(C(=O)N3CCN(C(=O)NC(C)(C)C)CC3)cc2C1(C)C [LAT39] | long extensions towards the solvent (7FV8, LAT25 and 7FUZ, LAT39)
